Holding throughout (assay type): cell-based
For one assay, the target named is T1, MTLR (Homo sapiens, UniProt O43193).
T1 construct: expressed in transfected cells
Nature of the assay: luciferase assay system, ghrelin receptor family selectivity. The conditions noted are these: compared with intrinsic ligand, FIG. 74. As for the experimental part: (§1) In addition, through the activity test of the HKFY derivatives for similar receptors to GPR39, ghrelin receptor family (ghrelin receptor (GHSR), motilin receptor (MTLR), neurotensin receptor (NTSR1 & NTSR2), neuromedin U receptor (NMU1 & NMU2), TRH (thyrotropin releasing hormone) receptor (TRHR)), the selectivity and specificity for the GPR39 receptor were confirmed.
(§2) Specifically, the degree of activity between the intrinsic ligand and HKFY-34 for each receptor was analyzed using a luciferase assay system (FIG. 74).

In another assay the target is T2, TRHR (Homo sapiens, UniProt P34981).
T2 construct: expressed in transfected cells
T2 sequence (P34981 whole entry, species assumed): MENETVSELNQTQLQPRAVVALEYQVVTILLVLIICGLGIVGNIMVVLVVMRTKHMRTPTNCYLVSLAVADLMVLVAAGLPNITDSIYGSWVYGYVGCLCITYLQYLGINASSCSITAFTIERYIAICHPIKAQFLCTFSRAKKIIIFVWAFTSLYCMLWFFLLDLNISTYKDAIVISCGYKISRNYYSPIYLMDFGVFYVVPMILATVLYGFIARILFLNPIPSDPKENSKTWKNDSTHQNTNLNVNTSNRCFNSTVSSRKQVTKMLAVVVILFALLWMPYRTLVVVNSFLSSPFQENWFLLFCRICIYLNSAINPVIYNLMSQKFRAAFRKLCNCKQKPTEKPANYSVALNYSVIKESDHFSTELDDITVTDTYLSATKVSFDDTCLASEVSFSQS
Described as above. The conditions noted are these: compared with intrinsic ligand, FIG. 74. The procedure: as §1, §2

In a further assay the test system is rat islet. Description: glucose-dependent insulin secretion in isolated rat islets (rat insulin ELISA). The conditions noted are these: 1 nM to 100 μM, 2.8 mM or 28 mM glucose. As for the experimental part:
In addition, the glucose-dependent insulin secretion ability of the HKFY derivative for rat islet was confirmed (FIG. 76).
Specifically, the pancreas was extracted from a 8-week-old SD rat (Damul Science), and islets were isolated. The isolated islets were treated with HKFY-34 at different concentrations (1 nM, 10 nM, 100 nM, 1 μM, 10 μM and 100 μM) in 2.8 mM or 28 mM glucose, and then the amount of the secreted insulin was measured using a rat insulin ELISA.
On the technique in general: An ELISA detects its analyte on a solid surface through an enzyme-linked reagent.

Each structure is given as a SMILES string.

T1 sequence (O43193 whole entry, species assumed): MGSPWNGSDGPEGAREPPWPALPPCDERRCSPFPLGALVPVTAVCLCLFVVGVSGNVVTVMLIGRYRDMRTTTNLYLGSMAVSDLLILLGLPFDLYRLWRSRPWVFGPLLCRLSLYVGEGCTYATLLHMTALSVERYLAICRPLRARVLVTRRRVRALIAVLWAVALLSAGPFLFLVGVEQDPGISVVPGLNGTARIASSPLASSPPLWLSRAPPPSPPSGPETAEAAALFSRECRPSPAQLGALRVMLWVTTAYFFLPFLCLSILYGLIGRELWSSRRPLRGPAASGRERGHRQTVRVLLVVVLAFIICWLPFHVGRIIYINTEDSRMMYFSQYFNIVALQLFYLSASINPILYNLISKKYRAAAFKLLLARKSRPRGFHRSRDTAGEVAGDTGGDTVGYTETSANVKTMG

In the case of `CCCCCCCC(=O)NCCCC[C@H](NC(=O)[C@@H](N)Cc1cn(C(c2ccccc2)c2ccccc2)cn1)C(=O)N[C@H](Cc1ccc(C)cc1)C(=O)N[C@@H](Cc1ccc(O)cc1)C(=O)O` [HKFY-34, ((R)-2-((S)-2-((S)-2-amino-3-(1-benzhydryl-1H-imidazol-4-yl)propanamido)-6-octanamidohexanamido)-3-(p-tolyl)propanoyl)-L-tyrosine], at MTLR, the “activity for MTLR” value is “very low”. Moreover, the “activity for TRHR” value at TRHR is recorded as “very low”. Moreover, in the assay on rat islet, the insulin secretion ability entry is listed as “concentration dependent (dose-dependent) manner”.
